From BindingDB's records for doi:10.1016/j.bioorg.2017.03.015 (Silesian University of Technology, 2017)

Molecular target: T1, Beta-1,4-galactosyltransferase 1 (Bos taurus, UniProt P08037)
T1 sequence (P08037 whole entry): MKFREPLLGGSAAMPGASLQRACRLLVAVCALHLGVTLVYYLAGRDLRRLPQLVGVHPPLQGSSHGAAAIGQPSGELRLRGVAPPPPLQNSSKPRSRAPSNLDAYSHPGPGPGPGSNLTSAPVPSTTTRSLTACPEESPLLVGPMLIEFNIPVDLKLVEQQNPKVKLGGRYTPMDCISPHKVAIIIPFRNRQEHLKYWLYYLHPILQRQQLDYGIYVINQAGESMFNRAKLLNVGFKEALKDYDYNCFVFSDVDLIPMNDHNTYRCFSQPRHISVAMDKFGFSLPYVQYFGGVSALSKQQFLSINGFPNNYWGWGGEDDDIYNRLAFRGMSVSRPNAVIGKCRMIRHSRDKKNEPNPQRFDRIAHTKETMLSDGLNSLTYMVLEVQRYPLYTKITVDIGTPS
Assay: β-1,4-Galactosyltransferase I Assay
Details: pH 5.4; 30 °C
Experimental: β4GalT activity was assayed using UDP-Gal as glycosyl donor and (6-esculetinyl) β-D-glucopyranoside (esculine) as glycosyl acceptor. Assays were performed in a total volume of 200 μL. The reaction mixtures contained reagents in the following final concentrations: 50 mM Hepes buffer (pH 5.4), 10 mM MnCl2, 2.0 mg/mL BSA, 200 μM esculine, 40 μM UDP-Gal, 10 μL MeOH and potential inhibitors 1-6 at 0.8 mM concentration. The enzymatic reactions were initiated by the addition of 1 mU β4GalT and incubated at 30 °C for 60 min. Inactivation was quickly done by placing of the reaction solutions for 3 min in a thermo block set to 90 °C. Thesolutions were diluted with water (300 μL) and centrifuged for 20 min, filtered through M.E. Cellulose filter (0.2 μm × 13 mm) and the filtrate was injected into RP-HPLC system.

Structure (SMILES): O=c1ccn([C@@H]2O[C@H](Cn3cc(CO[C@@H]4OC(CO)[C@@H](O)C(O)C4O)nn3)C(O)C2O)c(=O)[nH]1 (stereo partly drawn) [5'-deoxy-5'-[4-(β-D-glucopyranosyloxymethyl)-1,2-3-triazol-1-yl]uridine (5)]
- IC50: 720 µM
